Results reported in US9084782B2, “Chemical inhibitors of cholesterol biosynthesis and venous angiogenesis” (The Regents of the University of California, priority 2011, dated 2015).
“Also recorded” adds a separate entry of the source.

Key:
[1] = test system: Tg(kdrl:GFP) zebrafish embryos; test: Primary ISV formation (arterial-derived angiogenesis) in zebrafish embryos; format: in vivo
Text: (§1) Images of GFP expression in Tg(kdrl:GFP) embryos were acquired using a Zeiss SV-11 epifluorescence microscope. Confocal images were acquired using a Carl Zeiss Laser Scanning Systems LSM510 equipped with 20× air, 20× water or 40× water immersion objectives. For single time point confocal images, embryos were anesthetized with 0.01% tricaine and embedded in 1% agarose. When capturing time-lapse confocal movies, embryos were mounted in 3.5% methylcellulose (Sigma-Aldrich) and imaged for 5 hrs on a heated stage at 28.5° C. The images obtained were analyzed using the Zeiss LSM Image Brower version 4 and Image J.
A synthetic chemical library containing 168 compounds (Castellano et al., 2007) and 300 chemicals from Biomol International LP, consisting of 72 ion channel inhibitors (Cat No. 2805), 84 kinase/phosphatase inhibitors (Cat No. 2831), 84 orphan ligands (Cat No. 2825), and 60 endocannabinoids (Cat No. 2801) were screened. […]
To understand whether angiogenesis from arterial and venous ECs are under different genetic controls we screened a collection of small molecules for compounds that preferentially suppress angiogenesis from exclusively one cell type. In this screen, we used the primary ISV sprouts as the readout for arterial-derived angiogenesis, and the CVP and secondary ISV sprouts as indicators of venous-derived angiogenesis. […]

HMGCR pathway [2] = test: Microarray expression profiling of aplexone-treated embryos (Affymetrix Zebrafish GeneChip); format: in vivo; settings: 10 μM, RNA at 30 hpf
Description: (§2) Embryos at the 5-somite stage were treated with 0.4% DMSO (control) or 10 μM of aplexone in 0.4% DMSO and total RNA was isolated using the RNAeasy micro kit (Qiagen) at 30 hpf. Microarray analysis was performed in triplicate using the Affymetrix Zebrafish GeneChip, representing 15,617 genes. Synthesis and labeling of antisense RNA was performed as recommended by the array manufacturer using kits from Invitrogen for double-stranded cDNA synthesis, Enzo Life Sciences for transcription and labeling of antisense RNA and Affymetrix for probe purification and hybridization controls. Microarray hybridization data were analyzed using scripts written in the statistical programming language R (Team, 2009). Differentially expressed genes (DEGs) were identified using a linear model and multiple testing correction from the limma package (Smyth, 2004). The expression values were obtained using the robust multi array algorithm (Irizarry et al., 2003).

[3] = test system: caudal vein endothelial cells; test: Caudal vein endothelial cell migration, time-lapse confocal imaging; format: in vivo, zebrafish; settings: 10 μM aplexone
Description: A-B, Representative images of the caudal vein of control (A) and 10 μM aplexone-treated embryos (B) at 30 hpf. Images were overlaid with the endothelial cell migration path inferred from time-lapse confocal movies taken from 25 hpf to 30 hpf. The migration of caudal vein endothelial cells was traced using the Manual Tracking feature of ImageJ and the positions of ISV sprouting points were used as references to adjust for the growth of embryos. C, The distance of endothelial cell migration in caudal vein of control and aplexone-treated Tg(kdrl:GFP) embryos. Asterisk indicates p<0.05. (D) The window of application of aplexone. Grey bars represent the developmental stages during which Tg(kdrl:GFP) embryos were exposed to 10 μM aplexone and the caudal vein phenotype was analyzed at 48 hpf. […] A “−” indicates the formation of normal caudal vein plexus.
as §1, with “When capturing time-lapse confocal movies, embryos were mounted in 3.5% methylcellulose (Sigma-Aldrich) and imaged for 5 hrs on a heated stage at 28.5° C.” left out, “J. […]” for “J.”

mCherry-RhoCLVL = test: Localization of chimeric protein mCherry-RhoCLVL (geranylgeranylation); format: in vivo, zebrafish; settings: 10 μM aplexone, 80% epiboly
Description: mCherry-RhoCLVL was generated by PCR amplification of mCherry from pmCherry-N3 (a generous gift from S. Walsh) using primers containing sequences coding for the C-terminal 20 amino acid residues of human RhoA. mCherry-RasCVLS was amplified from pME-mCherryCAAX (a generous gift from C.-B. Chien). The PCR products were sub-cloned into pcGlobin2 (Ro et al., 2004) and mRNA was synthesized using the mMESSAGE mMACHINE kit (Ambion). Zebrafish embryos were injected with 250 pg of mCherry-RhoCLVL and mCherry-RasCVLS mRNA at 1-cell stage, and raised with or without the presence of 10 μM aplexone at 25° C. and fixed at 80% epiboly. Cellular localizations of the mCherry chimeras were analyzed with confocal microscopy.

HMGCR pathway [4] = test: Quantitative RT-PCR of aplexone-treated embryos; format: in vivo, zebrafish; settings: qPCR, GAPDH-normalized
Description: as §2
Quantitative RT-PCR was performed as follows. First strand cDNA was synthesized using the SuperScript™ first-strand synthesis system for RT-PCR (Invitrogen) and relative expression levels of genes were determined using iQ SYBR Green Supermix and an iCycler (Bio-Rad Laboratories). GAPDH was used for normalization.

CC(=O)C1=CCC(c2ccccc2)N(S(=O)(=O)c2ccc(C)cc2)C1 (stereo not shown) [aplexone]
development of primary ISVs ([1]; 10 μM aplexone): indistinguishable; also recorded: does not affect the development of primary ISVs
development of primary ISVs ([1]; 30 μM aplexone): shorter and never reach the dorsal side of the somites; also recorded: inhibits the growth of primary ISVs
fold change 3-hydroxy-3-methylglutaryl-Coenzyme A synthase 1 (HMGCS) (HMGCR pathway [2]): 2.0 fold
fold change Krueppel-like factor 11 (TIEG-2) (HMGCR pathway [2]): 2.1 fold
fold change carbonyl reductase 1-like (HMGCR pathway [2]): 2.1 fold
fold change coronin, actin binding protein, 1A (HMGCR pathway [2]): −2.1 fold
fold change cytochrome P450, family 51 (CYP51) (HMGCR pathway [2]): 2.8 fold
fold change farnesyl diphosphate synthetase (FDPS) (HMGCR pathway [2]): 2.0 fold
fold change fatty acid desaturase 2 (HMGCR pathway [2]): 2.4 fold
fold change glutamate dehydrogenase 1a (HMGCR pathway [2]): 2.2 fold
fold change glutathione S-transferase (HMGCR pathway [2]): 3.2 fold
fold change glutathione reductase like (HMGCR pathway [2]): 2.2 fold
fold change insulin induced gene 1 (INSIG) (HMGCR pathway [2]): 2.6 fold
fold change insulin-like growth factor binding protein 1 (HMGCR pathway [2]): 2.1 fold
fold change lymphocyte cytosolic plastin 1 (HMGCR pathway [2]): −2.7 fold
fold change lysozyme (HMGCR pathway [2]): −2.7 fold
fold change myosin regulatory light chain interacting protein (HMGCR pathway [2]): −2.1 fold
fold change nephrosin (HMGCR pathway [2]): −2.4 fold
fold change selenoprotein W (HMGCR pathway [2]): 3.1 fold
fold change sterol-C4-methyl oxidase-like (SC4MOL) (HMGCR pathway [2]): 2.0 fold
fold change sulfotransferase (HMGCR pathway [2]): 3.0 fold
maturation of caudal vein EC filopodia into angiogenic sprouts [3]: never matured into angiogenic sprouts
average EC migration distance during CVP formation ([3]; between 25 hpf and 30 hpf): 35 μm
subcellular localization of mCherry-rhoCAAX (CLVL) chimeric protein (mCherry-RhoCLVL): no longer localized predominantly to the membrane; also recorded: mis-localized to the nucleus and cytoplasm
fold change 3-hydroxy-3-methylglutaryl-Coenzyme A reductase (HMGCR) (HMGCR pathway [4]): 6.7 fold
fold change 3-hydroxy-3-methylglutaryl-Coenzyme A synthase 1 (HMGCS) (HMGCR pathway [4]): 2.8 fold
fold change 7-dehydrocholesterol reductase (DHCR7) (HMGCR pathway [4]): 2.5 fold
fold change cytochrome P450, family 51 (CYP51) (HMGCR pathway [4]): 4.4 fold
fold change farnesyl diphosphate synthetase (FDPS) (HMGCR pathway [4]): 2.2 fold
fold change insulin induced gene 1 (INSIG) (HMGCR pathway [4]): 5.1 fold
fold change sterol-C4-methyl oxidase-like (SC4MOL) (HMGCR pathway [4]): 5.6 fold
